Source: ChEMBL document CHEMBL1153872, “Synthesis, analgesic, anti-inflammatory and antimicrobial studies of 2,4-dichloro-5-fluorophenyl containing thiazolotriazoles” (2009)

Legend:
Type in all cases: functional
Aspergillus niger [1] = assay: Antifungal activity against Aspergillus niger after 3 to 4 days by agar diffusion method
Talaromyces marneffei [2] = assay: Antifungal activity against Penicillium marneffei after 3 to 4 days by agar diffusion method
Escherichia coli [3] = assay: Antibacterial activity against Escherichia coli after 24 hrs by broth dilution technique
Escherichia coli [4] = assay: Antibacterial activity against Escherichia coli after 24 hrs by disk diffusion method
Staphylococcus aureus [5] = assay: Antibacterial activity against Staphylococcus aureus after 24 hrs by disk diffusion method
Aspergillus fumigatus [6] = assay: Antifungal activity against Aspergillus fumigatus after 3 to 4 days by agar diffusion method
[7] = test system: Trichophyton mentagrophytes; assay: Antifungal activity against Trichophyton mentagrophytes after 3 to 4 days by agar diffusion method
Klebsiella pneumoniae [8] = assay: Antibacterial activity against Klebsiella pneumoniae after 24 hrs by disk diffusion method
Candida albicans [9] = assay: Antifungal activity against Candida albicans after 48 hrs by twofold broth dilution method
Aspergillus fumigatus [10] = assay: Antifungal activity against Aspergillus fumigatus after 48 hrs by twofold broth dilution method
Pseudomonas aeruginosa [11] = assay: Antibacterial activity against Pseudomonas aeruginosa after 24 hrs by disk diffusion method
[12] = test system: Trichophyton mentagrophytes; assay: Antifungal activity against Trichophyton mentagrophytes after 48 hrs by twofold broth dilution method
Staphylococcus aureus [13] = assay: Antibacterial activity against Staphylococcus aureus after 24 hrs by broth dilution technique
Candida albicans [14] = assay: Antifungal activity against Candida albicans after 3 to 4 days by agar diffusion method
Rattus norvegicus = assay: Antiinflammatory activity in Wister albino rat assessed as inhibition of carrageenan-induced paw edema at 50 mg/kg, po administered 30 mins before carrageenan challenge measured after 3 hrs relative to control
Mus musculus [15] = assay: Analgesic activity in albino mouse assessed as response latency time to pain stimulus at 25 mg/kg, po after 3 hrs by hot plate method; set-up: unit not given here
Aspergillus niger [16] = assay: Antifungal activity against Aspergillus niger after 48 hrs by twofold broth dilution method
Streptococcus pyogenes [17] = assay: Antibacterial activity against Streptococcus pyogenes after 24 hrs by disk diffusion method
Talaromyces marneffei [18] = assay: Antifungal activity against Penicillium marneffei after 48 hrs by twofold broth dilution method
Streptococcus pyogenes [19] = assay: Antibacterial activity against Streptococcus pyogenes after 24 hrs by broth dilution technique
Klebsiella pneumoniae [20] = assay: Antibacterial activity against Klebsiella pneumoniae after 24 hrs by broth dilution technique
Pseudomonas aeruginosa [21] = assay: Antibacterial activity against Pseudomonas aeruginosa after 24 hrs by broth dilution technique
Mus musculus [22] = assay: Analgesic activity in albino mouse assessed as response latency time to pain stimulus at 25 mg/kg, po after 1 hr by hot plate method; set-up: unit not given here

Compound	Diameter of inhibition zone (Aspergillus niger [1]) [mm]	MIC (Escherichia coli [3]) [microg/cm3]	Diameter of inhibition zone (Escherichia coli [4]) [mm]	Diameter of inhibition zone (Staphylococcus aureus [5]) [mm]	Diameter of inhibition zone [7] [mm]	Diameter of inhibition zone (Klebsiella pneumoniae [8]) [mm]	MIC (Candida albicans [9]) [microg/cm3]	MIC (Aspergillus fumigatus [10]) [microg/cm3]	Diameter of inhibition zone (Pseudomonas aeruginosa [11]) [mm]	MIC [12] [microg/cm3]	MIC (Staphylococcus aureus [13]) [microg/cm3]	inhibition in vivo at 50 mg/kg (Rattus norvegicus) [%]	Time (Mus musculus [15])	MIC (Aspergillus niger [16]) [microg/cm3]	Diameter of inhibition zone (Streptococcus pyogenes [17]) [mm]	MIC (Talaromyces marneffei [18]) [microg/cm3]	MIC (Streptococcus pyogenes [19]) [microg/cm3]	MIC (Klebsiella pneumoniae [20]) [microg/cm3]	MIC (Pseudomonas aeruginosa [21]) [microg/cm3]	Time (Mus musculus [22])	other results
Fc1cc(-c2nc3scc(-c4ccc(Cl)cc4)n3n2)c(Cl)cc1Cl	24	6.25	26	26	19	17	6.25	6.25	31	6.25	6.25	42.2	12.9	6.25	19	6.25	6.25	6.25	6.25	13.2	Diameter of inhibition zone (Talaromyces marneffei [2]): 19 mm; Diameter of inhibition zone (Aspergillus fumigatus [6]): 19 mm; Diameter of inhibition zone (Candida albicans [14]): 20 mm
O=[N+]([O-])c1ccc(-c2csc3nc(-c4cc(F)c(Cl)cc4Cl)nn23)cc1	–	6.25	15	12	10	11	6.25	6.25	15	25	12.5	10.9	10.9	>100	12	6.25	12.5	12.5	6.25	11.2	Diameter of inhibition zone (Talaromyces marneffei [2]): 18 mm; Diameter of inhibition zone (Aspergillus fumigatus [6]): 17 mm; Diameter of inhibition zone (Candida albicans [14]): 16 mm
Cc1ccc(-c2csc3nc(-c4cc(F)c(Cl)cc4Cl)nn23)cc1	11	12.5	13	15	8	15	>100	6.25	14	25	6.25	0	8.4	12.5	14	>100	12.5	6.25	6.25	8.2	Diameter of inhibition zone (Aspergillus fumigatus [6]): 16 mm
Fc1cc(-c2nc3scc(-c4cc(F)c(Cl)cc4Cl)n3n2)c(Cl)cc1Cl	22	6.25	28	23	18	19	6.25	6.25	30	6.25	6.25	59.4	13.6	12.5	24	6.25	6.25	6.25	6.25	14.21	Diameter of inhibition zone (Talaromyces marneffei [2]): 23 mm; Diameter of inhibition zone (Aspergillus fumigatus [6]): 20 mm; Diameter of inhibition zone (Candida albicans [14]): 18 mm
COc1ccc(-c2csc3nc(-c4cc(F)c(Cl)cc4Cl)nn23)cc1	20	6.25	25	21	14	19	6.25	>100	30	12.5	6.25	40.6	11.96	6.25	23	6.25	6.25	6.25	6.25	11.1	Diameter of inhibition zone (Talaromyces marneffei [2]): 17 mm; Diameter of inhibition zone (Candida albicans [14]): 17 mm
O=C(O)c1cn(C2CC2)c2cc(N3CCNCC3)c(F)cc2c1=O [CIPROFLOXACIN]	–	6.25	29	23	–	21	–	–	32	–	6.25	–	–	–	25	–	6.25	6.25	6.25	–	–
